Read-outs that look alike come from different tables or passages of the source.
Columns and labels:
[1] = system: Colorado Potato Beetle (CPB, Leptinotarsa decemlineata); test: Colorado Potato Beetle dipping bioassay (foliar method) with potato plants; format: in vivo; conditions: for Activity against CPB by potato plant dipping assay / Feeding damage protection of potato plants, Feeding Protection (%) / Feeding damage protection of potato plants (%), Control corrected: 100 ppm; for Feeding damage protection of potato plants, Feeding Protection (%) / Feeding damage protection of potato plants (%), Control corrected / mortality at 100 ppm: leaf dipping, 2nd instar CPB, 5 days after infest; for mortality at 100 ppm: Leptinotarsa decemlineata, foliar, 120 h
Description: 2. Method: Colorado Potato Beetle (CPB, Leptinotarsa decemlineata) Dipping Bioassay (Foliar Method) with Potato Plants Serial dilutions of TGAI are made in 50:50 (acetone: H2O) 0.01% kinetic solvent solution. Potato plant true leaves are snipped off the plant, treated by dipping method in a bowl with acetone-resistant plastic liner and inserted into a glass flask filled with water of the stem part to prevent dehydration of the leaves. Leaves are air-dried in hood, and transferred to petri dishes preset with a filter paper soaked with 2.5 ml water. The leaves are infested with five 2nd instar CPB per dish. 6 replicates/treatment and one rate (100 ppm)/test analog. Petri dishes are held for 5 days after infest at a […], 50% RH and 14/10 light/dark cycle in walk-in chamber. Both plant feeding damage and mortality of CPB were evaluated.

[2] = system: Colorado Potato beetle, Leptinotarsa decimlineata; test: Field trial, foliar application on potato, feeding damage assessment; format: in vivo
Description: 1. Potato-Colorado Potato Beetle, Leptinotarsa decimlineata:
Foliar application: Field trials were set up. The plots were laid out in 5-meter rows with 4 replications. Applications of Compound I-R-1 was done. Feeding damage assessments were taken at 6, 15 and 20 days after application for the entire plot.

[3] = control corrected, read-out: Mortality of CPB (%), Control corrected
[4] = read-out: Mortality of CPB, Mortality (%)

Structure (SMILES) | Activity against CPB by potato plant dipping assay [1] | Feeding damage protection of potato plants, Feeding Protection (%) [1] [%] | Feeding damage protection of potato plants (%), Control corrected ([1]; control corrected) [%] | mortality at 100 ppm [1, 3] [%] | mortality at 100 ppm [1, 4] [%] | Efficacy against L. decimlineata as foliar application in terms of reduction in feeding damage ([2]; foliar application (Table 2)) | Feeding damage (%) A06 ([2]; foliar treatment, 60 g ai/ha, 6 days after application, entire plot) [%] | Feeding damage (%) A15 ([2]; foliar treatment, 60 g ai/ha, 15 days after application, entire plot) [%] | Feeding damage (%) A20 ([2]; foliar treatment, 60 g ai/ha, 20 days after application, entire plot) [%]
C[n+]1c([O-])c(-c2ccccc2)c(=O)n2c1SCC2c1cnc(Cl)s1 (racemic) [Compound (I)] | active | 89.17 | 88.60 | 56.7 | 56.7 | – | – | – | –
C[n+]1c([O-])c(-c2ccccc2)c(=O)n2c1SC[C@@H]2c1cnc(Cl)s1 [Compound (I-R-1)] | active | 90.83 | 90.40 | 80 | 80 | good efficacy | 6.5 | 5.0 | 8.0
C[n+]1c([O-])c(-c2ccccc2)c(=O)n2c1CCC2c1cnc(Cl)s1 (stereo not drawn) [Compound C-6, reference compound] | inactive | 11.67 | 7.00 | 0 | 0 | – | – | – | –
C[n+]1c([O-])c(-c2ccccc2)c(=O)n2c1OCC2c1cnc(Cl)s1 (stereo not drawn) [Compound C-19, reference compound] | inactive | 5.00 | 0.00 | 3.33 | 3.33 | – | – | – | –

— patent US12532887B2, “Method for controlling pests of potato plants” (BASF SE, priority 2018, dated 2026)
